Measurements: ChEMBL document CHEMBL1201861, “Genomics of Drug Sensitity in Cancer screening data, Wellcome Trust Sanger Institute”

Tests used:
[1] = test system: SK-N-AS; assay: cells; type: functional, cell-based; settings: Homo sapiens;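 note: growth inhibition of human SK-N-AS cells, measured with a cell viability assay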
Description: SANGER: Inhibition of human SK-N-AS cell growth in a cell viability assay.

[2] = test system: NCI-H2347; assay: cells; type: functional, cell-based; settings: Homo sapiens;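 note: growth inhibition of the cell line, read out with a cell viability assay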
Description: SANGER: Inhibition of human NCI-H2347 cell growth in a cell viability assay.

[3] = test system: PA-1; assay: cells; type: functional, cell-based; settings: Homo sapiens;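 note: IC50 for suppression of PA-1 cell proliferation, determined with a cell viability read-out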
Description: SANGER: Inhibition of human PA-1 cell growth in a cell viability assay.

[4] = test system: EB-3; assay: cells; type: functional, cell-based; settings: Homo sapiens;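 note: human EB-3 cells, growth inhibition read out via a cell viability assay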
Description: SANGER: Inhibition of human EB-3 cell growth in a cell viability assay.

[5] = test system: J82; assay: cells; type: functional, cell-based; settings: Homo sapiens;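 note: growth inhibition of J82 cells, read out with a cell viability assay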
Description: SANGER: Inhibition of human J82 cell growth in a cell viability assay.

[6] = test system: NCI-H64; assay: cells; type: functional, cell-based; settings: Homo sapiens;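 note: growth inhibition of NCI-H64 cells, read out with a cell viability assay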
Description: SANGER: Inhibition of human NCI-H64 cell growth in a cell viability assay.

[7] = test system: CAL-39; assay: cells; type: functional, cell-based; settings: Homo sapiens;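 note: cell viability assay measuring growth inhibition of CAL-39 cells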
Description: SANGER: Inhibition of human CAL-39 cell growth in a cell viability assay.

[8] = test system: NCI-H1651; assay: cells; type: functional, cell-based; settings: Homo sapiens;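 note: Read-out is a cell viability assay, with IC50 expressing inhibition of NCI-H1651 cell growth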
Description: SANGER: Inhibition of human NCI-H1651 cell growth in a cell viability assay.

[9] = test system: U2OS; assay: cells; type: functional, cell-based, U-2-OS; settings: Homo sapiens;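 note: growth inhibition of human U-2-OS cells, determined with a cell viability assay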
Description: SANGER: Inhibition of human U-2-OS cell growth in a cell viability assay.

[10] = test system: SCLC-21H; assay: cells; type: functional, cell-based; settings: Homo sapiens;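 note: growth inhibition of cultured human SCLC-21H cells, read out with a cell viability assay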
Description: SANGER: Inhibition of human SCLC-21H cell growth in a cell viability assay.

[11] = test system: NCI-H460; assay: cells; type: functional, cell-based; settings: Homo sapiens;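 note: cell viability assay scoring growth inhibition of human NCI-H460 cells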
Description: SANGER: Inhibition of human NCI-H460 cell growth in a cell viability assay.

[12] = test system: ARH-77; assay: cells; type: functional, cell-based; settings: Homo sapiens;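 note: growth inhibition of ARH-77 cells, read out by a cell viability assay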
Description: SANGER: Inhibition of human ARH-77 cell growth in a cell viability assay.

[13] = test system: IGR-1; assay: cells; type: functional, cell-based; settings: Homo sapiens;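 note: growth inhibition of human IGR-1 cells, read out with a cell viability assay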
Description: SANGER: Inhibition of human IGR-1 cell growth in a cell viability assay.

[14] = test system: SK-MEL-28; assay: cells; type: functional, cell-based; settings: Homo sapiens;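 note: growth inhibition of human SK-MEL-28 cells, read out with a cell viability assay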
Description: SANGER: Inhibition of human SK-MEL-28 cell growth in a cell viability assay.

[15] = test system: KYSE-270; assay: cells; type: functional, cell-based; settings: Homo sapiens;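 note: cell growth inhibition measured with a viability assay in the human KYSE-270 line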
Description: SANGER: Inhibition of human KYSE-270 cell growth in a cell viability assay.

[16] = test system: NCI-H1437; assay: cells; type: functional, cell-based; settings: Homo sapiens;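 note: growth inhibition of human NCI-H1437 cells, read out by a cell viability assay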
Description: SANGER: Inhibition of human NCI-H1437 cell growth in a cell viability assay.

[17] = test system: SW1710; assay: cells; type: functional, cell-based; settings: Homo sapiens;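 note: growth inhibition of SW1710 cells, determined with a cell viability assay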
Description: SANGER: Inhibition of human SW1710 cell growth in a cell viability assay.

[18] = test system: NCI-H1693; assay: cells; type: functional, cell-based; settings: Homo sapiens;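 note: growth inhibition of the human cell line, read out with a cell viability assay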
Description: SANGER: Inhibition of human NCI-H1693 cell growth in a cell viability assay.

[19] = test system: LCLC-97TM1; assay: cells; type: functional, cell-based; settings: Homo sapiens;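 note: cell viability assay measuring growth inhibition of human LCLC-97TM1 cells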
Description: SANGER: Inhibition of human LCLC-97TM1 cell growth in a cell viability assay.

[20] = test system: COLO-741; assay: cells; type: functional, cell-based; settings: Homo sapiens
Description: SANGER: Inhibition of human COLO-741 cell growth in a cell viability assay.

[21] = test system: DMS-273; assay: cells; type: functional, cell-based; settings: Homo sapiens
Description: SANGER: Inhibition of human DMS-273 cell growth in a cell viability assay.

[22] = test system: BOKU; assay: cells; type: functional, cell-based; settings: Homo sapiens;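 note: growth inhibition of the human BOKU cell line, read out by a cell viability assay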
Description: SANGER: Inhibition of human BOKU cell growth in a cell viability assay.

[23] = test system: NCI-H719; assay: cells; type: functional, cell-based; settings: Homo sapiens;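 note: growth inhibition of the cultured cell line, read out with a viability assay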
Description: SANGER: Inhibition of human NCI-H719 cell growth in a cell viability assay.

[24] = test system: HLE; assay: cells; type: functional, cell-based; settings: Homo sapiens;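 note: growth inhibition of human HLE cells, read out by a cell viability assay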
Description: SANGER: Inhibition of human HLE cell growth in a cell viability assay.

[25] = test system: KYSE-70 cell line; assay: cells; type: functional, cell-based; settings: Homo sapiens;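 note: cell viability assay read-out, with IC50 expressing suppression of KYSE-70 cell growth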
Description: SANGER: Inhibition of human KYSE-70 cell growth in a cell viability assay.

[26] = test system: SW948; assay: cells; type: functional, cell-based; settings: Homo sapiens;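 note: growth inhibition of SW948 cells, read out with a cell viability assay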
Description: SANGER: Inhibition of human SW948 cell growth in a cell viability assay.

[27] = test system: COR-L23; assay: cells; type: functional, cell-based; settings: Homo sapiens;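 note: cell viability assay measuring how strongly compounds suppress growth of COR-L23 cells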
Description: SANGER: Inhibition of human COR-L23 cell growth in a cell viability assay.

[28] = test system: NCI-H716; assay: cells; type: functional, cell-based; settings: Homo sapiens;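 note: growth inhibition of human NCI-H716 cells, measured by a cell viability assay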
Description: SANGER: Inhibition of human NCI-H716 cell growth in a cell viability assay.

[29] = test system: UMUC3; assay: cells; type: functional, cell-based; settings: Homo sapiens;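 note: growth inhibition of human UM-UC-3 cells, read out with a cell viability assay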
Description: SANGER: Inhibition of human UM-UC-3 cell growth in a cell viability assay.

[30] = test system: HuO-3N1; assay: cells; type: functional, cell-based; settings: Homo sapiens;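 note: cell viability readout used to measure how strongly compounds suppress proliferation of human HuO-3N1 cells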
Description: SANGER: Inhibition of human HuO-3N1 cell growth in a cell viability assay.

[31] = test system: Hs-578T; assay: cells; type: functional, cell-based; settings: Homo sapiens
Description: SANGER: Inhibition of human Hs-578-T cell growth in a cell viability assay.

[32] = test system: EGI-1; assay: cells; type: functional, cell-based; settings: Homo sapiens;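 note: cell viability readout used to gauge growth inhibition of EGI-1 cells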
Description: SANGER: Inhibition of human EGI-1 cell growth in a cell viability assay.

[33] = test system: DOK; assay: cells; type: functional, cell-based; settings: Homo sapiens;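 note: cell viability assay read-out, values reflect inhibition of cell growth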
Description: SANGER: Inhibition of human DOK cell growth in a cell viability assay.

[34] = test system: CAKI-1; assay: cells; type: functional, cell-based; settings: Homo sapiens;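 note: growth inhibition of CAKI-1 cells, measured by a cell viability assay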
Description: SANGER: Inhibition of human CAKI-1 cell growth in a cell viability assay.

[35] = test system: M059J; assay: cells; type: functional, cell-based; settings: Homo sapiens;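 note: growth inhibition of M059J cells, read out with a cell viability assay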
Description: SANGER: Inhibition of human M059J cell growth in a cell viability assay.

[36] = test system: NCI-H358; assay: cells; type: functional, cell-based; settings: Homo sapiens;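 note: growth inhibition of NCI-H358 human cells, read out with a cell viability assay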
Description: SANGER: Inhibition of human NCI-H358 cell growth in a cell viability assay.

[37] = test system: BEN; assay: cells; type: functional, cell-based; settings: Homo sapiens;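 note: growth inhibition of the BEN cell line, read out with a cell viability assay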
Description: SANGER: Inhibition of human BEN cell growth in a cell viability assay.

[38] = test system: PC-14; assay: cells; type: functional, cell-based; settings: Homo sapiens;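 note: cell viability assay measuring inhibition of PC-14 cell growth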
Description: SANGER: Inhibition of human PC-14 cell growth in a cell viability assay.

[39] = test system: RPMI-6666; assay: cells; type: functional, cell-based; settings: Homo sapiens
Description: SANGER: Inhibition of human RPMI-6666 cell growth in a cell viability assay.

[40] = test system: TCC-SUP; assay: cells; type: functional, cell-based; settings: Homo sapiens;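 note: growth inhibition of TCC-SUP cells, read out with a cell viability assay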
Description: SANGER: Inhibition of human TCCSUP cell growth in a cell viability assay.

[41] = test system: OE19; assay: cells; type: functional, cell-based; settings: Homo sapiens;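 note: growth inhibition of OE19 cells, measured through a cell viability read-out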
Description: SANGER: Inhibition of human OE19 cell growth in a cell viability assay.

[42] = test system: HCT-116; assay: cells; type: functional, cell-based; settings: Homo sapiens
Description: SANGER: Inhibition of human HCT-116 cell growth in a cell viability assay.

[43] = test system: MHH-ES-1; assay: cells; type: functional, cell-based; settings: Homo sapiens
Description: SANGER: Inhibition of human MHH-ES-1 cell growth in a cell viability assay.

[44] = test system: MeWo; assay: cells; type: functional, cell-based; settings: Homo sapiens;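 note: growth inhibition of MeWo cells, determined by a cell viability readout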
Description: SANGER: Inhibition of human Mewo cell growth in a cell viability assay.

[45] = test system: HuP-T4; assay: cells; type: functional, cell-based; settings: Homo sapiens;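 note: cell viability assay measuring how much HuP-T4 cell growth is inhibited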
Description: SANGER: Inhibition of human HuP-T4 cell growth in a cell viability assay.

[46] = test system: ABC-1; assay: cells; type: functional, cell-based; settings: Homo sapiens;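 note: growth inhibition of human ABC-1 cells, read out by a cell viability assay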
Description: SANGER: Inhibition of human ABC-1 cell growth in a cell viability assay.

[47] = test system: G-402; assay: cells; type: functional, cell-based; settings: Homo sapiens
Description: SANGER: Inhibition of human G-402 cell growth in a cell viability assay.

[48] = test system: NALM-6; assay: cells; type: functional, cell-based; settings: Homo sapiens;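 note: growth inhibition of NALM-6 cells, read out with a cell viability assay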
Description: SANGER: Inhibition of human NALM-6 cell growth in a cell viability assay.

[49] = test system: NCI-H1623; assay: cells; type: functional, cell-based; settings: Homo sapiens;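 note: cell viability assay used as the read-out for growth inhibition of NCI-H1623 cells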
Description: SANGER: Inhibition of human NCI-H1623 cell growth in a cell viability assay.

[50] = test system: T84; assay: cells; type: functional, cell-based; settings: Homo sapiens;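 note: growth inhibition measured with a cell viability readout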
Description: SANGER: Inhibition of human T84 cell growth in a cell viability assay.

[51] = test system: KYSE-140; assay: cells; type: functional, cell-based; settings: Homo sapiens;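 note: cell viability assay measuring growth inhibition in human KYSE-140 cells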
Description: SANGER: Inhibition of human KYSE-140 cell growth in a cell viability assay.

[52] = test system: UACC-812; assay: cells; type: functional, cell-based; settings: Homo sapiens
Description: SANGER: Inhibition of human UACC-812 cell growth in a cell viability assay.

[53] = test system: NCI-H2452; assay: cells; type: functional, cell-based; settings: Homo sapiens;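 note: growth inhibition of NCI-H2452 cells, read out with a cell viability assay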
Description: SANGER: Inhibition of human NCI-H2452 cell growth in a cell viability assay.

[54] = test system: RO82-W-1; assay: cells; type: functional, cell-based; settings: Homo sapiens;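 note: growth inhibition of human RO82-W-1 cells, measured with a cell viability assay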
Description: SANGER: Inhibition of human RO82-W-1 cell growth in a cell viability assay.

[55] = test system: CESS; assay: SANGER: Inhibition of human CESS cell growth in a cell viability assay.; type: functional, cell-based
[56] = test system: SK-MEL-24; assay: cells; type: functional, cell-based; settings: Homo sapiens;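 note: growth inhibition read out by a cell viability assay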
Description: SANGER: Inhibition of human SK-MEL-24 cell growth in a cell viability assay.

[57] = test system: SW1463; assay: cells; type: functional, cell-based; settings: Homo sapiens;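 note: growth inhibition of SW1463 cells, determined with a cell viability assay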
Description: SANGER: Inhibition of human SW1463 cell growth in a cell viability assay.

[58] = test system: LN-405; assay: cells; type: functional, cell-based; settings: Homo sapiens
Description: SANGER: Inhibition of human LN-405 cell growth in a cell viability assay.

[59] = test system: SW1088; assay: cells; type: functional, cell-based; settings: Homo sapiens;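 note: growth inhibition of human SW1088 cells, read out by a cell viability assay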
Description: SANGER: Inhibition of human SW1088 cell growth in a cell viability assay.

[60] = test system: BXPC-3; assay: cells; type: functional, cell-based; settings: Homo sapiens
Description: SANGER: Inhibition of human BxPC-3 cell growth in a cell viability assay.

[61] = test system: CaR-1; assay: cells; type: functional, cell-based; settings: Homo sapiens
Description: SANGER: Inhibition of human CaR-1 cell growth in a cell viability assay.

[62] = test system: IM-9; assay: SANGER: Inhibition of human IM-9 cell growth in a cell viability assay.; type: functional, cell-based

With `C/C=C(/C)C(=O)O[C@H]1C(C)=C2[C@H]([C@@H]1OC(=O)CCCCCCC)[C@@](C)(OC(C)=O)C[C@H](OC(=O)CCC)[C@@]1(O)[C@H]2OC(=O)[C@@]1(C)O` [THAPSIGARGIN] the IC50 [1] was 0.0485 µM, the IC50 [2] was 0.0102 µM and the IC50 [3] was 0.000698 µM. For the same molecule, the IC50 [4] was 0.019 µM, the IC50 [5] was 0.00791 µM and the IC50 [6] was 0.00645 µM. The IC50 [7] was under 0.002 µM, the IC50 [8] was 0.0413 µM and the IC50 [9] was 0.0447 µM. It also gave an IC50 [10] of 0.00169 µM, an IC50 [11] of 0.00837 µM and an IC50 [12] of 0.0751 µM. The IC50 [13] was 0.0105 µM, the IC50 [14] was over 0.512 µM and the IC50 [15] was 0.00149 µM. The IC50 [16] was 0.00247 µM, the IC50 [17] was under 0.002 µM and the IC50 [18] was over 0.512 µM. For the same molecule, the IC50 [19] was under 0.002 µM, the IC50 [20] was 0.0109 µM and the IC50 [21] was under 0.002 µM. The IC50 [22] was over 0.512 µM, the IC50 [23] was over 0.512 µM and the IC50 [24] was 0.00275 µM. The IC50 [25] was under 0.002 µM, the IC50 [26] was over 0.512 µM and the IC50 [27] was 0.000749 µM. It also gave an IC50 [28] of over 0.512 µM, an IC50 [29] of 0.00121 µM and an IC50 [30] of 0.0432 µM. The IC50 [31] was over 0.512 µM, the IC50 [32] was 0.0217 µM and the IC50 [33] was over 0.512 µM. For the same molecule, the IC50 [34] was 0.0834 µM, the IC50 [35] was 0.0108 µM and the IC50 [36] was under 0.002 µM. For the same molecule, the IC50 [37] was 0.0139 µM, the IC50 [38] was 0.00801 µM and the IC50 [39] was 0.0426 µM. For the same molecule, the IC50 [40] was 0.0516 µM, the IC50 [41] was 0.0365 µM and the IC50 [42] was 0.000943 µM. The IC50 [43] was 0.00418 µM, the IC50 [44] was over 0.512 µM and the IC50 [45] was 0.0013 µM. For the same molecule, the IC50 [46] was 0.00319 µM, the IC50 [47] was 0.00395 µM and the IC50 [48] was under 0.002 µM. It also gave an IC50 [49] of over 0.512 µM, an IC50 [50] of 0.0134 µM and an IC50 [51] of under 0.002 µM. For the same molecule, the IC50 [52] was over 0.512 µM, the IC50 [53] was over 0.512 µM and the IC50 [54] was over 0.512 µM. The IC50 [55] was 0.0354 µM, the IC50 [56] was over 0.512 µM and the IC50 [57] was over 0.512 µM. For the same molecule, the IC50 [58] was over 0.512 µM, the IC50 [59] was 0.324 µM and the IC50 [60] was 0.00653 µM. For the same molecule, the IC50 [61] was 0.00862 µM and the IC50 [62] was over 0.512 µM.
Work on `C/C(O)=C(\C#N)C(=O)Nc1cc(Br)ccc1Br` yielded an IC50 [1] of over 16 µM, an IC50 [2] of over 16 µM and an IC50 [3] of over 16 µM. For the same molecule, the IC50 [4] was over 16 µM, the IC50 [5] was over 16 µM and the IC50 [6] was over 16 µM. For the same molecule, the IC50 [7] was over 16 µM, the IC50 [8] was over 16 µM and the IC50 [9] was over 16 µM. The IC50 [10] was over 16 µM, the IC50 [11] was over 16 µM and the IC50 [12] was over 16 µM. It also gave an IC50 [13] of over 16 µM, an IC50 [14] of over 16 µM and an IC50 [15] of over 16 µM. The IC50 [16] was over 16 µM, the IC50 [17] was over 16 µM and the IC50 [18] was over 16 µM. For the same molecule, the IC50 [19] was over 16 µM, the IC50 [20] was over 16 µM and the IC50 [21] was over 16 µM. The IC50 [22] was over 16 µM, the IC50 [23] was over 16 µM and the IC50 [24] was over 16 µM. It also gave an IC50 [25] of over 16 µM, an IC50 [26] of over 16 µM and an IC50 [27] of over 16 µM. The IC50 [28] was over 16 µM, the IC50 [29] was over 16 µM and the IC50 [30] was over 16 µM. It also gave an IC50 [31] of over 16 µM, an IC50 [32] of over 16 µM and an IC50 [33] of over 16 µM. For the same molecule, the IC50 [34] was over 16 µM, the IC50 [35] was over 16 µM and the IC50 [36] was over 16 µM. For the same molecule, the IC50 [37] was over 16 µM, the IC50 [38] was over 16 µM and the IC50 [39] was over 16 µM. The IC50 [40] was over 16 µM, the IC50 [41] was over 16 µM and the IC50 [42] was over 16 µM. For the same molecule, the IC50 [43] was over 16 µM, the IC50 [44] was over 16 µM and the IC50 [45] was over 16 µM. It also gave an IC50 [46] of over 16 µM, an IC50 [47] of over 16 µM and an IC50 [48] of over 16 µM. It also gave an IC50 [49] of over 16 µM, an IC50 [50] of over 16 µM and an IC50 [51] of over 16 µM. The IC50 [52] was over 16 µM, the IC50 [53] was over 16 µM and the IC50 [54] was over 16 µM. The IC50 [55] was over 16 µM, the IC50 [56] was over 16 µM and the IC50 [57] was over 16 µM. For the same molecule, the IC50 [58] was over 16 µM, the IC50 [59] was over 16 µM and the IC50 [60] was over 16 µM. The IC50 [61] was over 16 µM and the IC50 [62] was over 16 µM.
